ChEMBL document CHEMBL4765430, “Endeavors towards transformation of M. tuberculosis thymidylate kinase (MtbTMPK) inhibitors into potential antimycobacterial agents” (Eur J Med Chem, 2020)
≈ marks a conversion by molar mass, not a printed value.

Key:
[1] = Inhibition of wild-type Mycobacterium tuberculosis thymidylate kinase expressed in Escherichia coli BLi5 competent cells using dTMP as substrate by lactate dehydrogenase, pyruvate kinase and nucleoside diphosphate kinase coupled spectrophotometric method
[2] = test system: Mycobacterium tuberculosis; test: Antitubercular activity against Mycobacterium tuberculosis H37Ra incubated for 7 to 14 days under 7H9/glucose medium; type: functional; settings: time 7-14 day
[3] = test system: Mycobacterium tuberculosis; test: Antitubercular activity against Mycobacterium tuberculosis H37Rv ATCC 27294 incubated for 7 to 14 days under GAST (Fe(+)) medium; type: functional; settings: time 7-14 day
[4] = test system: Mycobacterium tuberculosis; test: Antitubercular activity against Mycobacterium tuberculosis H37Rv ATCC 27294 incubated for 7 to 14 days under 7H9/glucose medium; type: functional; settings: time 7-14 day
[5] = test system: Mycobacterium tuberculosis; test: Antitubercular activity against Mycobacterium tuberculosis H37Rv ATCC 27294 incubated for 7 to 14 days under GAST (Fe(-)) medium; type: functional; settings: time 7-14 day
[6] = Cytotoxicity against human MRC5 cells measured after 24 hrs by neutral red uptake assay; type: cell-based
[7] = Stability of compound in pH 6.6 ammonium bicarbonate-formic acid buffer assessed as degradation measured up to 6 hrs by LC-MS analysis; type: physicochemical; settings: read-out: Drug degradation
[8] = Stability of compound in pH 6.6 ammonium bicarbonate-formic acid buffer assessed as parent compound remaining measured after 24 hrs by LC-MS analysis; type: physicochemical; settings: read-out: Stabilty
[9] = Stability of compound in pH 6.6 ammonium bicarbonate-formic acid buffer assessed as hydrolysis measured after 24 hrs by LC-MS analysis; type: physicochemical; settings: pH 6.6, 24 h

| Structure (SMILES) | IC50 ([1]; read-out: IC50) [µM] | MIC99 [2] [µM] | MIC99 [3] [µM] | MIC99 [4] [µM] | MIC99 [5] [µM] | CC50 at 24 h [6] [µM] | degraded at 6 h [7] [%] | remaining at 24 h [8] [%] | Stabilty [9] | IC50 [1] |
| --- | --- | --- | --- | --- | --- | --- | --- | --- | --- | --- |
| Cc1cn(C2CCN(Cc3ccc(Oc4ccccc4)cc3)CC2)c(=O)[nH]c1=O | 29 | > 64 | – | – | – | – | – | – | – | – |
| Cc1cn(C2CCN(Cc3cc(Oc4ccc(C(=O)O)c(O)c4)c4ccccc4n3)CC2)c(=O)[nH]c1=O | 1.3 | – | 100 (≈ 50.3 µg/mL) | > 100 | ≥ 100 | > 64 | – | – | – | – |
| CCc1nc2ccc(Cl)cn2c1C(=O)NCc1ccc(N2CCC(n3cc(C)c(=O)[nH]c3=O)CC2)cc1 | 47 | – | 2.3 (≈ 1.2 µg/mL) | 4.7 (≈ 2.45 µg/mL) | – | > 64 | – | – | – | – |
| Cc1cn(C2CCN(Cc3ccc4cccc(O)c4n3)CC2)c(=O)[nH]c1=O | 23 | – | > 100 | 75 (≈ 27.5 µg/mL) | > 100 | 54 | – | – | – | – |
| Cc1cn(C2CCN(Cc3cc(OCCOC(=O)c4ccc(O)c(O)c4)c4ccccc4n3)CC2)c(=O)[nH]c1=O | 0.14 | – | > 100 | ≥ 100 | > 100 | 6.39 | – | – | – | – |
| Cc1cn(C2CCN(Cc3ccc(CNC(=O)c4cc([N+](=O)[O-])cc([N+](=O)[O-])c4)cc3)CC2)c(=O)[nH]c1=O | 48 | – | 9.4 (≈ 4.91 µg/mL) | 9.4 (≈ 4.91 µg/mL) | 6.25 (≈ 3.27 µg/mL) | > 64 | – | – | – | – |
| Cc1cn(C2CCN(Cc3cc(Oc4ccc(OC(=O)c5ccc(O)c(O)c5)cc4)c4ccccc4n3)CC2)c(=O)[nH]c1=O | 0.18 | – | 37 (≈ 22 µg/mL) | > 50 | – | – | < 10 | > 70 | Stable | – |
| Cc1cn(C2CCN(Cc3cc(Oc4ccc(C(=O)NO)cc4)c4ccccc4n3)CC2)c(=O)[nH]c1=O | 1 | – | 50 (≈ 25.1 µg/mL) | > 50 | – | 32.2 | – | – | – | – |
| CCc1nc2ccc(Cl)cn2c1C(=O)N1CCC(n2cc(C)c(=O)[nH]c2=O)CC1 | 879 | – | > 100 | > 100 | > 100 | > 64 | – | – | – | – |
| Cc1cn(C2CCN(Cc3cc(Oc4ccc(/C=N/NC(=S)S)c(O)c4)c4ccccc4n3)CC2)c(=O)[nH]c1=O | 0.31 | – | 100 (≈ 57.7 µg/mL) | > 100 | 25 (≈ 14.4 µg/mL) | 1.45 | < 10 | > 70 | – | – |
| Cc1cn(C2CCN(Cc3cc(NCCOC(=O)c4ccc(O)c(O)c4)c4ccccc4n3)CC2)c(=O)[nH]c1=O | 0.24 | – | > 100 | > 100 | 100 (≈ 54.6 µg/mL) | > 64 | – | > 70 | – | – |
| Cc1cn(C2CCN(Cc3cc(Oc4ccc(O)cc4)c4ccccc4n3)CC2)c(=O)[nH]c1=O | 0.83 | – | > 100 | ≥ 100 | ≥ 100 | > 64 | – | – | – | – |
| Cc1cn(C2CCN(Cc3cc(=O)c4ccccc4[nH]3)CC2)c(=O)[nH]c1=O | 7.8 | – | > 100 | > 100 | > 100 | > 64 | – | – | – | – |
| Cc1cn(C2CCN(c3ccc(CNC(=O)c4ccc([N+](=O)[O-])cc4[N+](=O)[O-])cc3)CC2)c(=O)[nH]c1=O | – | – | 0.78 (≈ 0.397 µg/mL) | 9.4 (≈ 4.78 µg/mL) | 1.2 (≈ 0.61 µg/mL) | > 64 | – | – | – | Nd(Unstable) |
| Cc1cn(C2CCN(Cc3cccc(-c4ccccn4)n3)CC2)c(=O)[nH]c1=O | 34 | – | > 100 | 12.5 (≈ 4.72 µg/mL) | > 100 | > 64 | – | – | – | – |
| Cc1cn(C2CCN(Cc3cc(OCCO)c4ccccc4n3)CC2)c(=O)[nH]c1=O | 2.4 | – | > 100 | > 100 | > 100 | > 64 | – | – | – | – |
| Cc1cn(C2CCN(Cc3cc(NCCO)c4ccccc4n3)CC2)c(=O)[nH]c1=O | 0.53 | – | > 100 | > 100 | > 100 | > 64 | – | – | – | – |
| NNC(=O)c1ccncc1 [ISONIAZID] | – | – | 0.15 (≈ 0.0206 µg/mL) | 0.15 (≈ 0.0206 µg/mL) | 0.15 (≈ 0.0206 µg/mL) | – | – | – | – | – |
